Results: patent US9175260B2, “Early mesoderm cells, a stable population of mesendoderm cells that has utility for generation of endoderm and mesoderm lineages and multipotent migratory cells (MMC)” (TheUniversity of Georgia Research Foundation, Inc., priority 2007, dated 2015)

How the values were obtained:
Type in all cases: cell-based, human
hESCs (BG02) = experiment: BIO added to hESCs grown in MEF-CM (immunostaining)
Description: hESCs (BG02) grown in MEF-CM on Matrigel coated plates, were passaged in MEF-CM plus BIO (2 μM) over 4 days.

hESCs (BG01) [1] = experiment: Mesendoderm generation from hESCs with BIO in defined media (Q-PCR, immunostaining); details: BIO 2 μM
Description: hESCs (BG01) were plated as per the conditions specified in Example 1 in defined media. After ˜16-24 hours, BIO (2 μM) was added to cultures.

hESCs (BG01) [2] = experiment: Mesendoderm generation from hESCs with Wnt3a in defined media (Q-PCR, immunostaining); details: Wnt3a 25 ng/ml
Description: hESCs (BG01) were plated as per the conditions specified in Example 1 in defined media. After ˜16-24 hours, human Wnt3a (25 ng/ml; R&D Systems) was added to cultures.

hESC (BG02) = experiment: Generation of definitive endoderm: BIO and SB431542 followed by high Activin A (Q-PCR); details: defined media minus IGF-I and Heregulin plus Activin A 100 ng/ml, 4 days, after 4 days BIO/SB431542
Description: hESC were taken and grown in defined media in the presence of BIO (2 μM) and SB431542 (20 μM) for 4 days. The cells were then split 1-4 into the same media or defined media minus IGF-I and heregulin and with additional Activin A (100 ng/ml) for an additional 4 days (FIG. 22). Samples (BG02) were taken every 2 days up to 8 days for Q-PCR analysis. […] This cell type persisted in the presence of BIO/SB431542.

[3] = tested on: cells passaged in BIO/SB431542 (MMCs); experiment: Differentiation of MMCs to endoderm with Activin A after removal of BIO/SB431542 (Q-PCR); details: 6 passages in BIO/SB431542, then Activin A to 100 ng/ml without IGF-I, heregulin; 4 day period
From the text: We consider these cells to be pre-mesoderm and pre-endoderm but no longer hESCs. This raised the possibility that these cells retained a multipotent differentiation potential that could be manifested following removal of BIO/SB431542 and by addition of cell differentiation factors. To test the possibility that the cells in BIO/SB431542-containing media could be further differentiated into endoderm, we grew cells for 6 passages in BIO/SB431542, then removed BIO/SB431542, and IGF-I, heregulin (two activators of PI3K activity) from the media and supplemented with Activin A to 100 ng/ml. These are conditions that support differentiation of hESCs to definitive endoderm. Over a 4 day period following the switch to the endoderm differentiation conditions we observed increases in Sox17 and CXCR4 transcripts while Nanog, T and eomesodermin transcripts remained low (FIG. 32). […] We propose that the BIO/SB431542 treated cells could also be differentiated into mesoderm and perhaps other lineages (ectoderm) if exposed to the appropriate specification factors. For example, we believe that BIO/SB431542-treated cells could be converted to mesoderm cells if BIO/SB431542 was removed and BMP4 was added to the media.

[4] = BIO 2 μM, 4 days, cells passaged with trypsin
[5] = BIO, cells passaged with collagenase
[6] = involving an epithelial to mesenchymal transition

O=C1Nc2cc(Br)ccc2/C1=C1/Nc2ccccc2/C1=N\O [BIO, (2′Z,3′E)-6-Bromoindirubin-3′-oxime]
differentiation outcome (hESCs (BG02); BIO 2 μM): promotes an epithelial to mesenchymal transition and differentiation to mesendoderm
Oct4 and E-cadherin (immunostaining) (hESCs (BG02); [4]): downregulation
T/Brachyury (immunostaining) (hESCs (BG02); [4]): upregulation
Nanog and E-cadherin (immunostaining) (hESCs (BG02); [5]): downregulation
T/Brachyury (immunostaining) (hESCs (BG02); [5]): upregulation
Snail localisation (immunostaining) (hESCs (BG01) [1]; 48 hours): accumulates in the nucleus
T/brachyury levels (immunostaining) (hESCs (BG01) [1]; 48 hours): increased
E-cadherin and Nanog (immunostaining) (hESCs (BG01) [1]; after 48 hours): downregulated
Nanog transcripts (Q-PCR) (hESCs (BG01) [1]; defined media): decreased by 48 hours
T and MixL1 mRNA levels (Q-PCR) (hESCs (BG01) [1]; defined media): increased over the first 24 hours then decreased thereon
differentiation outcome (hESCs (BG01) [1]; [6]): caused hESCs to differentiate to mesendoderm

B1: Wnt3a: canonical Wnt signaling molecule; human Wnt3a (R&D Systems) (protein, UniProt P56704 19-352, looked up)
Protein Wnt-3a: SYPIWWSLAVGPQYSSLGSQPILCASIPGLVPKQLRFCRNYVEIMPSVAEGIKIGIQECQHQFRGRRWNCTTVHDSLAIFGPVLDKATRESAFVHAIASAGVAFAVTRSCAEGTAAICGCSSRHQGSPGKGWKWGGCSEDIEFGGMVSREFADARENRPDARSAMNRHNNEAGRQAIASHMHLKCKCHGLSGSCEVKTCWWSQPDFRAIGDFLKDKYDSASEMVVEKHRESRGWVETLRPRYTYFKVPTERDLVYYEASPNFCEPNPETGSFGTRDRTCNVSSHGIDGCDLLCCGRGHNARAERRREKCRCVFHWCCYVSCQECTRVYDVHTCK
T/brachyury levels (immunostaining) (hESCs (BG01) [2]; 48 hours): increased
β-catenin and Snail localisation (immunostaining) (hESCs (BG01) [2]; 48 hours): accumulate in the nucleus
E-cadherin and Nanog (immunostaining) (hESCs (BG01) [2]; after 48 hours): downregulated
Nanog transcripts (Q-PCR) (hESCs (BG01) [2]; defined media): decreased by 48 hours
T, Eomes and MixL1 mRNA levels (Q-PCR) (hESCs (BG01) [2]; defined media): increased over 1-2 days, then decreased by day 5
differentiation outcome (hESCs (BG01) [2]; [6]): caused hESCs to differentiate to mesendoderm

B2: Activin A: growth factor (R&D Systems), used at high levels (100 ng/ml) to produce definitive endoderm (protein, UniProt P08476 311-426, looked up)
Inhibin beta A chain: GLECDGKVNICCKKQFFVSFKDIGWNDWIIAPSGYHANYCEGECPSHIAGTSGSSLSFHSTVINHYRMRGHSPFANLKSCCVPTKLRPMSMLYYDDGQNIIKKDIQNMIVEECGCS
differentiation after switch to Activin A (Q-PCR: Sox17, CXCR4 upregulated, FoxF1 absent) (hESC (BG02)): further differentiated into DE
Nanog, T and eomesodermin transcripts (Q-PCR) [3]: remained low
Sox17 and CXCR4 transcripts (Q-PCR) [3]: increases
